What all share (assay): Radioligand Binding Assay
The target of one assay is Adenosine receptor A2a (Homo sapiens, UniProt P29274). The method, then: (§1) For all four adenosine receptors (A1, A2A, A2B and A3) filtration binding assay was performed. Radioligand binding competition assay was done in duplicates in the wells of a 96-well plate (Master Block, Greiner, 786201) containing binding buffer, receptor membrane extracts, a fixed concentration of tracer and test compound at increasing concentrations. In order to eliminate effect of buffer components, binding buffer was the same for all four receptors and contained: 50 mM Tris-HCl pH 7.4, 5 mM MgCl2, 1 mM EDTA, 150 mM NaCl, 0.1% Na-azide, and 5 U/ml adenosine-deaminase. Nonspecific binding was determined by co-incubation with 200-fold excess of cold competitor. In all radioligand binding experiments, the samples were incubated in a final volume of 0.1 ml for 60 minutes at 25° C. and then filtered over Unifilter plates (Perkin Elmer) pre-treated for 2 hours to limit tracer non-specific binding. Filters were washed five times with 0.5 ml of ice-cold washing buffer (50 mM Tris-HCl pH 7.4, 5 mM MgCl2, 1 mM EDTA) and 50 μl of Microscint 20 (Perkin Elmer) were added to each filter. The plates are incubated 15 min at room temperature on an orbital shaker and then counted with a TopCount™ for 1 min/well.
Chain of Adenosine receptor A2a (P29274 whole entry): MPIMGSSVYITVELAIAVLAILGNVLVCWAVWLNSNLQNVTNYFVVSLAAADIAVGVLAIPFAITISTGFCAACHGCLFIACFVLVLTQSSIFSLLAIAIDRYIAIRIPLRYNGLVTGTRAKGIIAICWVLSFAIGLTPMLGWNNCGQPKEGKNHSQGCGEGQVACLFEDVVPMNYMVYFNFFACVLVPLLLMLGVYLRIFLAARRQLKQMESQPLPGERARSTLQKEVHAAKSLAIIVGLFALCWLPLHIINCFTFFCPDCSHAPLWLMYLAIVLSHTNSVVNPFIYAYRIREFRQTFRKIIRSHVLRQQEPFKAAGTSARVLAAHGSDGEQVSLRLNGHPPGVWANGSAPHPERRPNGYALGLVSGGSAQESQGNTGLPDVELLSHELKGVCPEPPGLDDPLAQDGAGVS

The next assay addresses T1, Adenosine receptor A2b (Homo sapiens, UniProt P29275).
T1 sequence (P29275 whole entry): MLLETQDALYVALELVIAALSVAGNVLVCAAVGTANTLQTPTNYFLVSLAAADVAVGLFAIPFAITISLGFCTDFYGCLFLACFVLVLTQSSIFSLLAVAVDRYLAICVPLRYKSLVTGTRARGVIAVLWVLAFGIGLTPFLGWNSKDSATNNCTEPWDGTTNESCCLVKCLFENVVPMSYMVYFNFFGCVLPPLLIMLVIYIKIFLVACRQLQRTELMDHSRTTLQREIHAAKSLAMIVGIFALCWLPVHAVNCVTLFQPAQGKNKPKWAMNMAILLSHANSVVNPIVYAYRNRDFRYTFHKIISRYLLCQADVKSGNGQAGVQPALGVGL
As to the method:
as §1

A further assay deals with T2, Adenosine receptor A3 (Homo sapiens, UniProt P0DMS8).
T2 sequence (P0DMS8 whole entry): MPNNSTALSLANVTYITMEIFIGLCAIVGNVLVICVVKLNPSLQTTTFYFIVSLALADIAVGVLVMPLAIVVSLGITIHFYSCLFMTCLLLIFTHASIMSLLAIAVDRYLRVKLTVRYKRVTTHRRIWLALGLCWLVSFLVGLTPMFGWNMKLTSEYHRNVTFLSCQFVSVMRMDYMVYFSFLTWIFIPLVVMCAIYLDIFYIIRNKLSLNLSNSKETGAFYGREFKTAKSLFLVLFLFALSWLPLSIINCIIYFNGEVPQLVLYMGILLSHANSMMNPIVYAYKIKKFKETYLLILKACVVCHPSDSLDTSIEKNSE
As to the method:
as §1

Bounds are passed on as bounds.

In the case of `Cc1nsc(Nc2nnc(-c3ccnc(C(F)(F)F)c3)c(-c3ccccc3F)n2)n1` [US12391670, Example 11], on Adenosine receptor A2a, the inhibition constant Ki was more than 20000 nM. Besides, at Adenosine receptor A2b, the half-inhibitory concentration (IC50) is 1010 nM and the inhibition constant (Ki) came out at 891 nM.

Take `Fc1ccccc1-c1nc(Nc2cccnc2)nnc1-c1ccnc(C(F)(F)F)c1` [US12391670, Example 8]: the IC50 is 24100 nM at Adenosine receptor A2a, 250 nM on Adenosine receptor A2b and 1350 nM at Adenosine receptor A3. Also, the Ki on Adenosine receptor A2a was 24000 nM; on Adenosine receptor A2b, 224 nM; on Adenosine receptor A3, 1020 nM.

As usually defined, the Ki is the equilibrium dissociation constant of an inhibitor or competing ligand from its target. For orientation: IC50 means the concentration that inhibits the measured activity by half.

The values are drawn from BindingDB's records for patent US12391670 (Leadxpro, 2025).
